# Assay results: US9157909B2, “Male reproductive health panel and uses thereof” (priority 2007, dated 2015)
# Like-named read-outs stand apart in the source and are kept apart here.
# Key:
# [1] = tested on: human sperm
# Protocol: (§1) In vitro oxidative stress exposure; human sperm from a fertile […] were exposed to increasing hydrogen peroxide (H2O2) concentrations (0, 10, 50 and 100 μM), and incubated at 37° C., for 15 min and 1 hr.
# (§2) Sperm was isolated from the seminal plasma as previously described in Brown et al. 1995. The sperm pellet was resuspended in phosphate buffered saline (PBS), pH=7.4, and divided into 4 aliquots. Each aliquot (equal sperm concentrations) was incubated at 37° C. in PBS with H2O2 concentrations of 0, 10, 50, and 100 μM for 15 min and 1 hr. All aliquots were divided into 2 portions. One portion was used to determine LPO.
# (§3) The remaining portion was centrifuged at 1500 g for 15 min at room temperature. The pellet was analyzed in the HSAA.
# Sperm chromatin decondensation and nuclear recondensation were evaluated in sperm exposed to increasing concentrations of H2O2 for 15 min and 1 hr using the HSAA. Sperm were analyzed at different incubation times in the egg extract using the image analysis Methamorph software system. The sperm nuclear activation was scored in 5 categories: 1) full decondensation: sperm diameter 25-30 μm, 2) partial decondensation: sperm diameter<25 μm, 3) non-decondensed, 4) hyperdecondensed: sperm diameter>(25-30 μm), and full recondensation.
# [2] = tested on: human sperm; settings: for sperm heavily labeled by ^3H-TTP incorporation: incubation not printed (15 min implied)
# Protocol: FIG. 3: HSAA—The effect of oxidative stress on DNA synthesis. Pictorial representation of autoradiographs of control untreated sperm (A-E) and sperm exposed to 100 μM H2O2 for 1 hr (a-e) assayed in the HSAA in the presence of ^3H-TTP. All the pictures were photographed using bright microscopy 60× objective. […] All pictures were printed at the same magnification.
# as §1, §2, §3
# [3] = tested on: human sperm; settings: 50 and 100 μM H2O2 (15 min); 10, 50 and 100 μM H2O2 (1 hr)
# Protocol: as §2
# [4] = tested on: sperm; settings: comet assay, direct exposure of sperm; cited from earlier work
# [5] = tested on: human sperm; assay: HSAA of sperm exposed to ROS from PMA-activated PMNL with or without Trolox; format: cell-based
# Protocol: PMNLs were isolated from blood of healthy donors by density gradient centrifugation. Activation and the number of peroxidase-positive leukocytes were determined using the Endtz test. Sperm from fertile males were isolated using percoll gradients (40 and 80%). Sperm from the 80% fraction was divided into 6 aliquots: 1) control non-treated sperm, 2) sperm treated with ROS inducer phorbol-12 myristate-13 acetate (PMA), 3) non-treated sperm with non-treated PMNL, 4) sperm with PMA treated PMNL, 5) sperm with PMA treated PMNL plus Trolox 40 μM, and 6) non-treated sperm plus Trolox 40 μM. Following an incubation period, sperm were evaluated for (A) sperm activation events in the HSAA, evaluating sperm activation events (decondensation, DNA synthesis, and recondensation) at 15 min, and 2 hr, and (B) determining ROS levels via nitroblue of tetrazolium (NBT) and spectrophotometry.
# [6] = tested on: sperm; settings: sperm exposed to hydroxylamine, analyzed in the HSAA; cited from earlier work
# [7] = Trolox 40 μM with PMA treated PMNL (oxidative stress)
compound,measurement,setting,value
"OO [H2O2, hydrogen peroxide]",hyper-decondensed sperm,"[1]; 10 μM H2O2, 2 and 3 hr incubation in egg extract (results combined)",No sperm were hyper-decondensed
same,"recondensation appearance (FIG. 3d, e)","[1]; 100 μM H2O2, 1 hr exposure, 2 and 3 hr incubation in egg extract",irregular recondensation
same,recondensed sperm,"[1]; 10 and 50 μM H2O2, 15 min exposure, 15 min incubation in egg extract",No recondensed sperm were observed
same,non-decondensed sperm,"[1]; other concentrations (50 and 100 μM H2O2), any exposure time point, 15 min incubation in egg extract",no sperm were non-decondensed
same,^3H-TTP incorporation (autoradiography),"[2]; 10 μM H2O2, 15 min and 1 hr exposure, 2 and 3 hr incubations in egg extract",normal ^3H-TTP incorporation
same,^3H-TTP incorporation (autoradiography),"[2]; 10 μM H2O2, 15 min and 1 hr exposure, 5 and 15 min incubations in egg extract",no incorporation of ^3H-TTP
same,heavily labeled sperm (^3H-TTP),"[2]; 10 μM H2O2, 15 min and 1 hr exposures, 3 hr incubation in egg extract",98±2%
same,sperm positive for ^3H-TTP incorporation,"[2]; 10 μM H2O2, 15 min and 1 hr exposures, incubation time not printed (15 min in egg extract implied)",No sperm were positive
same,sperm positive for ^3H-TTP incorporation,"[2]; 10 μM H2O2, 5 min incubation in egg extract per heading (sentence prints 15 min extract incubation)",No sperm were positive
same,sperm heavily labeled by ^3H-TTP incorporation,"[2]; 50 μM H2O2, 15 min exposure",10±2%
same,sperm heavily labeled by ^3H-TTP incorporation,"[2]; 100 μM H2O2, 15 min exposure",50±5%
same,"onset of DNA synthesis (autoradiograph, FIG. 3b)","[2]; 100 μM H2O2, 1 hr exposure, 5 min incubation in egg extract",early initiation of DNA synthesis
same,"onset of DNA synthesis (autoradiograph, FIG. 3c)","[2]; 100 μM H2O2, 1 hr exposure, 15 min incubation in egg extract",early initiation of DNA synthesis
same,sperm heavily labeled by ^3H-TTP incorporation,"[2]; 100 μM H2O2, 1 hr exposure",45±9%
same,^3H-TTP incorporation (autoradiography),"[2]; 50 and 100 μM H2O2, 15 min and 1 hr exposure",abnormal ^3H-TTP incorporation
same,"LPO (amount of MDA and hydroxyalkenals), means compared to untreated control sperm",[3],significantly different
same,H2O2 concentration at which induction of DNA fragmentation was significant,[4],200 µM
"Cc1c(C)c2c(c(C)c1O)CCC(C)(C(=O)O)O2 (stereo not shown) [Trolox, 6-Hydroxy-2,5,7,8-tetramethylchroman-. 2-carboxylic acid]",decondensation response,[5]; [7],improved responses in decondensation
same,early ^3H-TTP incorporation,[5]; [7],no early ^3H-TTP incorporation
same,sperm having recondensed chromatin,"[5]; Trolox 40 μM with PMA treated PMNL, 2 hr time point, only 57% without Trolox",78%
NO [hydroxylamine],onset of DNA synthesis,[6],early initiation of DNA synthesis
same,sperm decondensation response,[6],minimal decondensation
